Data reported in ChEMBL document CHEMBL5291721, “A preclinical secondary pharmacology resource illuminates target-adverse drug reaction associations of marketed drugs” (Nat Commun, 2023).

Assays:
[1] = target: Prostaglandin G/H synthase 1 (Homo sapiens, UniProt P23219); format: functional
[2] = target: T1, Estrogen receptor (Homo sapiens, UniProt P03372)
T1 sequence (P03372 whole entry): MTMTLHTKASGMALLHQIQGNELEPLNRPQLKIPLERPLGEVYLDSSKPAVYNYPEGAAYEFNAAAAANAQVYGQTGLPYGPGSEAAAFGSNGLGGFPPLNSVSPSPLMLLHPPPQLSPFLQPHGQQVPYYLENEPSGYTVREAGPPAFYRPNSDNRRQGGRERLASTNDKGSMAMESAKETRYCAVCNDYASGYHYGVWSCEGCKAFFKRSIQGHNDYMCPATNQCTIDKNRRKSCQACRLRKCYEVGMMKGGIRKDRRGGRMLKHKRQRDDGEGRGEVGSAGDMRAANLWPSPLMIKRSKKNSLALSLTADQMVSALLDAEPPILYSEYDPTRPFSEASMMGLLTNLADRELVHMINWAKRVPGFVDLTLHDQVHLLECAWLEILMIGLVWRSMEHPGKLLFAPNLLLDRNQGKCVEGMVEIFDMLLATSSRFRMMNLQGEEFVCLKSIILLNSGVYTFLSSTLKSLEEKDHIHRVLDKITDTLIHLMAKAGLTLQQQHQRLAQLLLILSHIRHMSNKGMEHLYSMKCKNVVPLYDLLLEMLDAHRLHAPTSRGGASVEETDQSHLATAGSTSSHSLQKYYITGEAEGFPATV

[3] = target: T2, Thromboxane A2 receptor (Homo sapiens, UniProt P21731); format: functional, cell-based
T2 sequence (P21731 whole entry): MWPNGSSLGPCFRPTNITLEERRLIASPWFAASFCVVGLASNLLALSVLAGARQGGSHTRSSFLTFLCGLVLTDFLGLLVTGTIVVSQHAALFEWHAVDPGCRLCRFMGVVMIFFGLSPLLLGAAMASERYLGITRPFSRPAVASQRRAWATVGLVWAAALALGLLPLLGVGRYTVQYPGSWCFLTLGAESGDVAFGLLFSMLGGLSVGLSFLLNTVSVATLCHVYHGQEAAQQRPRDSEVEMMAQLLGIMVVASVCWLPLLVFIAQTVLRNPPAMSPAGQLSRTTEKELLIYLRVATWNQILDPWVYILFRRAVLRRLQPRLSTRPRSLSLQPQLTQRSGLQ

[4] = target: Sodium-dependent noradrenaline transporter (Homo sapiens, UniProt P23975)
Sequence of Sodium-dependent noradrenaline transporter (P23975 whole entry): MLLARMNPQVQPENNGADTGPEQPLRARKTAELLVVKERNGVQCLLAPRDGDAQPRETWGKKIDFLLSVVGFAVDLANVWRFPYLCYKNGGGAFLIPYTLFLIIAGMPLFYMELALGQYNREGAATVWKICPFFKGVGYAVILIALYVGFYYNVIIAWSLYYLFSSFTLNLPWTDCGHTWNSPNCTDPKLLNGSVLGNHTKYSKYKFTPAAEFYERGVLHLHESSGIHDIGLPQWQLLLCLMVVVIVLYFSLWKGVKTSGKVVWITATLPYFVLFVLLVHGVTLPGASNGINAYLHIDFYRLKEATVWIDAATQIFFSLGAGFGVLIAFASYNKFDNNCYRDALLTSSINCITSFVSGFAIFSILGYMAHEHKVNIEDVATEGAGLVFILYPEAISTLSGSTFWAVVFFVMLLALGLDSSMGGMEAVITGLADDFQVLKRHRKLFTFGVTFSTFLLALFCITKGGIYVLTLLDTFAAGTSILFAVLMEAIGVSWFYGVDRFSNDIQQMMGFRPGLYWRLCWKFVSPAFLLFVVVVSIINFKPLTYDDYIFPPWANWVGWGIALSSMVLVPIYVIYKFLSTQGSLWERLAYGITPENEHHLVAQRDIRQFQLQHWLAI

[5] = target: Muscarinic acetylcholine receptor M3 (Homo sapiens, UniProt P20309)
[6] = target: T3, Alpha-1A adrenergic receptor (Homo sapiens, UniProt P35348); format: functional, cell-based
T3 sequence (P35348 whole entry): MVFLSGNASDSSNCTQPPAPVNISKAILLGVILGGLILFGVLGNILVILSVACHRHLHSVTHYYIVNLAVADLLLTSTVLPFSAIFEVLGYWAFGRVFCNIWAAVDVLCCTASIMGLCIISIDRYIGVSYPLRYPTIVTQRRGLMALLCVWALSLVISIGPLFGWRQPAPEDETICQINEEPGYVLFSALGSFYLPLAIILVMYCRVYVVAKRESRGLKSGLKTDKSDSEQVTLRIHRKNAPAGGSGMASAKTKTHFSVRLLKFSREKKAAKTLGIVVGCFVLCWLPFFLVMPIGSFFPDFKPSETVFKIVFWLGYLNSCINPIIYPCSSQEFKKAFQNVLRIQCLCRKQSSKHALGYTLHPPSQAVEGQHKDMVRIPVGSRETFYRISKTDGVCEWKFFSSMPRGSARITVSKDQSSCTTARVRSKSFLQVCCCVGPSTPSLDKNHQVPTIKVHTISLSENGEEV

[7] = target: Cannabinoid receptor 1 (Homo sapiens, UniProt P21554); format: functional, cell-based
Sequence of Cannabinoid receptor 1 (P21554 whole entry): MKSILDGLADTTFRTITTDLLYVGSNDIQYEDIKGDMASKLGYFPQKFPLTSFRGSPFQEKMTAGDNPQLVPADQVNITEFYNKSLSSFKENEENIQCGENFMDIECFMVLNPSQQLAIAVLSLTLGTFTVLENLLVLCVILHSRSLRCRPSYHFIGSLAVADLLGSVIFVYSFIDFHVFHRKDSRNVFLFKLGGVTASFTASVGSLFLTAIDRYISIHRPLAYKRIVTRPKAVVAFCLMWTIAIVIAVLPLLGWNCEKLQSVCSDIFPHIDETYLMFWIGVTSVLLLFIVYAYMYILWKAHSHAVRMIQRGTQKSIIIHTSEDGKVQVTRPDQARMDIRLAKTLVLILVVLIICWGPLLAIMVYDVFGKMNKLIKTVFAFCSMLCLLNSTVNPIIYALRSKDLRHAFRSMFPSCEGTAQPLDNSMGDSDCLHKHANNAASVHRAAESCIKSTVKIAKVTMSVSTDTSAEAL

[8] = target: Histamine H3 receptor (Homo sapiens, UniProt Q9Y5N1)
Sequence of Histamine H3 receptor (Q9Y5N1 whole entry): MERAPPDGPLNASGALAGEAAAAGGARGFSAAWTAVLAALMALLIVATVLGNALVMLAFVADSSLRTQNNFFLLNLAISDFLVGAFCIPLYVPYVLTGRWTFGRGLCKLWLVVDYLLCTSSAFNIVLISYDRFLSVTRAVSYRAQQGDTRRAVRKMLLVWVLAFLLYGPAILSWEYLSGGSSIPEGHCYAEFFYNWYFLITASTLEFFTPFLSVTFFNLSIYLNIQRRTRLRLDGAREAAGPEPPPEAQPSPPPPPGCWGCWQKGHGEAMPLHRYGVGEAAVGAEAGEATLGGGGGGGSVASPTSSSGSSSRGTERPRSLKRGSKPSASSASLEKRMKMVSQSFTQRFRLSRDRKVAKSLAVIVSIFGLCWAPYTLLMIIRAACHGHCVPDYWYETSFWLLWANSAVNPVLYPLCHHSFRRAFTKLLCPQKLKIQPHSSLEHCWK

[9] = target: Beta-2 adrenergic receptor (Homo sapiens, UniProt P07550); format: functional, cell-based
[10] = target: T4, Progesterone receptor (Homo sapiens, UniProt P06401); format: functional
T4 sequence (P06401 whole entry): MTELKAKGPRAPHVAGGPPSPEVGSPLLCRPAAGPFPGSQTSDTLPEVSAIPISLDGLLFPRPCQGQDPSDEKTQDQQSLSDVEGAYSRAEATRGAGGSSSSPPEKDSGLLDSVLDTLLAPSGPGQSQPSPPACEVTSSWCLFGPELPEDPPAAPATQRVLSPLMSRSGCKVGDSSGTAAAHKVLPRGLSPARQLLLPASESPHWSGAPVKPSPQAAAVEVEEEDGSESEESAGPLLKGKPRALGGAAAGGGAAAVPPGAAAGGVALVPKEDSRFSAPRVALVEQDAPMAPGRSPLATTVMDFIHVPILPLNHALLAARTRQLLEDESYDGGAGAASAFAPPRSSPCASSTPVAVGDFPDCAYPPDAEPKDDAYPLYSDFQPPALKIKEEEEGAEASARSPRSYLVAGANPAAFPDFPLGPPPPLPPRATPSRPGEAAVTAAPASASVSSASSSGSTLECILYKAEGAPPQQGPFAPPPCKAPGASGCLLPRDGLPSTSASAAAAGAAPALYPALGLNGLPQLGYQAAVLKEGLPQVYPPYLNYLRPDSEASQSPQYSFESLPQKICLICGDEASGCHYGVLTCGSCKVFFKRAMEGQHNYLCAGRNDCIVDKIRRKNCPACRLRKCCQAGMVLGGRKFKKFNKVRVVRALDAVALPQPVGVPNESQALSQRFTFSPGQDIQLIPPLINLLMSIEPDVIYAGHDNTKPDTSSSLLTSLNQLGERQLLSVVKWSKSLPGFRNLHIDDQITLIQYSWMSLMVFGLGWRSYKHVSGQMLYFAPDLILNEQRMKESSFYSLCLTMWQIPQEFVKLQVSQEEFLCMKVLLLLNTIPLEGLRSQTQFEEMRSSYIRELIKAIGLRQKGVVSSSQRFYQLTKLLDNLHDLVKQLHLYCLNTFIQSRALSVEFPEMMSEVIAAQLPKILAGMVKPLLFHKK

[11] = target: Histamine H1 receptor (Homo sapiens, UniProt P35367)
Sequence of Histamine H1 receptor (P35367 whole entry): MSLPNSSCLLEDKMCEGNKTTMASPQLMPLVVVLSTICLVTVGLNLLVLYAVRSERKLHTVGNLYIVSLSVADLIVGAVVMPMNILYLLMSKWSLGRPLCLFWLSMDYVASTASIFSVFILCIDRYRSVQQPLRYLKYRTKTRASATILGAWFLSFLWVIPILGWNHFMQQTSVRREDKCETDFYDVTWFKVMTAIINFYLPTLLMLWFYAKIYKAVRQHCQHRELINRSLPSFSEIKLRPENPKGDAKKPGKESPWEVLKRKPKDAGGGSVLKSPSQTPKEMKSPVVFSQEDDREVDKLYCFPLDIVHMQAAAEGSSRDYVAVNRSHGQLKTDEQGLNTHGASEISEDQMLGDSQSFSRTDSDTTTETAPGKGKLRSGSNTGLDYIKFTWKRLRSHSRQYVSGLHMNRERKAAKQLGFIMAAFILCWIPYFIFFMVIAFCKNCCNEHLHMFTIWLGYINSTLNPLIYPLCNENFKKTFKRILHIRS

[12] = target: Mu-type opioid receptor (Homo sapiens, UniProt P35372)
[13] = target: Voltage-dependent L-type calcium channel subunit alpha-1C (Rattus norvegicus, UniProt P22002); format: functional
Sequence of Voltage-dependent L-type calcium channel subunit alpha-1C (P22002 whole entry): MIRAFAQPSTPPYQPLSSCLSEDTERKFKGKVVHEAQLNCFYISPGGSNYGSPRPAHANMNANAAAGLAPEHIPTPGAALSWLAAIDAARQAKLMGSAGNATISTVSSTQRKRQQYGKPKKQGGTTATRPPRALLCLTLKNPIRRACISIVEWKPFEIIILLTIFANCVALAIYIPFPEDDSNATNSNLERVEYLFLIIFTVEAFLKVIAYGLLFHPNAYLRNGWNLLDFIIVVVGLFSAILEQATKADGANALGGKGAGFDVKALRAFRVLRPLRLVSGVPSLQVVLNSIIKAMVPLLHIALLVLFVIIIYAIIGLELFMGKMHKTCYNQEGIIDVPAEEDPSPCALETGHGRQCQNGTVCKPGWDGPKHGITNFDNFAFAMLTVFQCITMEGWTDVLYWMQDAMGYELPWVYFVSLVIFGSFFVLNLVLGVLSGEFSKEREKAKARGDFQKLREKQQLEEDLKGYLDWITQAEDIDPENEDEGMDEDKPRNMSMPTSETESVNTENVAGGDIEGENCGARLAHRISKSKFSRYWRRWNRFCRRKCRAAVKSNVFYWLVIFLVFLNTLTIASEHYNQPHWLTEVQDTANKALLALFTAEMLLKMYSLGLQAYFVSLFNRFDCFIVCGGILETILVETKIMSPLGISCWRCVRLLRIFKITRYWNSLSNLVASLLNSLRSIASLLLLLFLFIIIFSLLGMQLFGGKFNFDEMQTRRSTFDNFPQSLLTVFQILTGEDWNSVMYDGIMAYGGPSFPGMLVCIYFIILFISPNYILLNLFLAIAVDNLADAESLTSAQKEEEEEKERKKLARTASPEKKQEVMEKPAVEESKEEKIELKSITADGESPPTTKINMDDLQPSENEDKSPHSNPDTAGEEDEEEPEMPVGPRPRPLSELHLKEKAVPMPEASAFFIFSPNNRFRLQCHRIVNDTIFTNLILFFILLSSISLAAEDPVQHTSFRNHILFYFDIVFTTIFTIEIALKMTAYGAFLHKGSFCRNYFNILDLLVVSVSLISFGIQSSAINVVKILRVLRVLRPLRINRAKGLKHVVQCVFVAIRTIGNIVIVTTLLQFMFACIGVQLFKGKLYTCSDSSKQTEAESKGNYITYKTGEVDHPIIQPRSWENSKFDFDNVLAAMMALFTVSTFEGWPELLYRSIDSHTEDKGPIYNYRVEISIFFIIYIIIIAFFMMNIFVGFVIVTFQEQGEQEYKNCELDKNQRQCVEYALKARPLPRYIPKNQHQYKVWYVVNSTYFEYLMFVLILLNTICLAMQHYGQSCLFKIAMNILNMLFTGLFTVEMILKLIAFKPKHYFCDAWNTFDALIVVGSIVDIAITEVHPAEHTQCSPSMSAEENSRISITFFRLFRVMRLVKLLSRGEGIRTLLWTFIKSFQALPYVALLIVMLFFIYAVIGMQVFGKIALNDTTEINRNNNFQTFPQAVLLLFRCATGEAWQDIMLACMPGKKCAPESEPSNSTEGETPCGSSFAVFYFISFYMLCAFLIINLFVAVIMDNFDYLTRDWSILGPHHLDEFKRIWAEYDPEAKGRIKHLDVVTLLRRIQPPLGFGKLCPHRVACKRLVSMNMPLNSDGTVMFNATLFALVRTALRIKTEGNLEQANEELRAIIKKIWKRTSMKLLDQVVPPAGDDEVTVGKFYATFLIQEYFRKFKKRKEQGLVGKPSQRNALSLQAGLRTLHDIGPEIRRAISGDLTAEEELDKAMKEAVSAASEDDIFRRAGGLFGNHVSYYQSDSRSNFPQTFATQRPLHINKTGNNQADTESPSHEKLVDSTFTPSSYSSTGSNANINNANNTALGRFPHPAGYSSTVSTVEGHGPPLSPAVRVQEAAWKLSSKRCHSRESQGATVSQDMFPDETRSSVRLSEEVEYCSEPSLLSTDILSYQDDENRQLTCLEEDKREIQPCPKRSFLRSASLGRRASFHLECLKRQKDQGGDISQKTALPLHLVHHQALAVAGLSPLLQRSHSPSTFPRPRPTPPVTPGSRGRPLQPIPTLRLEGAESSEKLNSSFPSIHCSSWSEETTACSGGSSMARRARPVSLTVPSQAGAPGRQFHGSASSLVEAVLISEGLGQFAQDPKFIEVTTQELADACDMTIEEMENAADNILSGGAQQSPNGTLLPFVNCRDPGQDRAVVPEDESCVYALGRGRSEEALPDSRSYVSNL
Further: assay procedure not described here.

Sequence of Prostaglandin G/H synthase 1 (P23219 whole entry): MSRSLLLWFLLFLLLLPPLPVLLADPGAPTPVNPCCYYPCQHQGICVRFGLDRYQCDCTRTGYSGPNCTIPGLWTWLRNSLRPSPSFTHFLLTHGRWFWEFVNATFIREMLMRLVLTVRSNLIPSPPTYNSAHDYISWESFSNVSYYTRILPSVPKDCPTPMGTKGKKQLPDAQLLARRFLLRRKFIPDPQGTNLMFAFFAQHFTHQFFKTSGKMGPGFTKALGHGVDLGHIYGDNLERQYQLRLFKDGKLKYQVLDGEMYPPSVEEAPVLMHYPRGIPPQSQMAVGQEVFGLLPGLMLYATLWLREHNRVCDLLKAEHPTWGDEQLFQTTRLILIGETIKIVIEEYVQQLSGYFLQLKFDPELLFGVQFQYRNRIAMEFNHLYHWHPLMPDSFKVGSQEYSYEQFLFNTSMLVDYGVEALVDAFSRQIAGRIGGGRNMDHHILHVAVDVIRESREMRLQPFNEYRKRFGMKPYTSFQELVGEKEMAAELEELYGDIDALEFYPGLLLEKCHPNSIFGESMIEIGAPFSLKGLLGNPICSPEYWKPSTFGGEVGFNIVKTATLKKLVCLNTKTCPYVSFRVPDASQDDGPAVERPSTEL

SMILES	AC50 [1] [µM]	AC50 [2] [µM]	AC50 [3] [µM]	AC50 [4] [µM]	AC50 [5] [µM]	AC50 [6] [µM]	AC50 [7] [µM]	AC50 [8] [µM]	AC50 [9] [µM]	AC50 [10] [µM]	AC50 [11] [µM]	AC50 [12] [µM]	AC50 [13] [µM]
CN(C)S(=O)(=O)c1ccc2c(c1)N(CCCN1CCC(CCO)CC1)c1ccccc1S2 [PIPOTIAZINE]	> 30	> 30	15.7	12									
Nc1nc(NC2CC2)c2ncn([C@H]3C=C[C@@H](CO)C3)c2n1 [ABACAVIR]					> 30	> 30	> 30	> 30	> 30	> 30	> 30		
Cc1cn([C@H]2C[C@H](N=[N+]=[N-])[C@@H](CO)O2)c(=O)[nH]c1=O [ZIDOVUDINE]	> 30	> 30	> 30	> 30		> 30	> 30	> 10				> 30	> 10
CCCCCCOc1nsnc1C1=CCCN(C)C1 [XANOMELINE]	> 30	> 30	> 30	2.74									
CCc1oc2ccccc2c1C(=O)c1cc(I)c(O)c(I)c1 [BENZIODARONE]	8.33	> 30	> 1	12.6									
Cc1c(C(=O)NN2CCCCC2)nn(-c2ccc(Cl)cc2Cl)c1-c1ccc(Cl)cc1 [RIMONABANT]					> 30	> 30		> 30	> 30	> 30	22		3.19
O=C(CCNNC(=O)c1ccncc1)NCc1ccccc1 [NIALAMIDE]	8.28	> 30	> 30	> 30									
C[N+]1(C)CCC(OC(=O)C(O)(c2ccccc2)C2CCCC2)C1 (stereo not given) [GLYCOPYRRONIUM BROMIDE]		> 30	> 30							> 10			
CC(=O)N[C@@H]1[C@@H](O)[C@H](O)[C@@H](CO)O[C@H]1O [N-ACETYLGLUCOSAMINE]	> 30	> 30	> 30	> 30									
CC[C@H]1[C@@H](O)[C@@H]2[C@H](CC[C@]3(C)[C@@H]([C@H](C)CCC(=O)O)CC[C@@H]23)[C@@]2(C)CC[C@@H](O)C[C@@H]12 [OBETICHOLIC ACID]	> 30	> 30	> 30	> 30	> 30	> 30	> 30	> 30		> 30	> 30		> 30
COCc1c(C(C)C)nc(C(C)C)c(/C=C/[C@@H](O)C[C@@H](O)CC(=O)O)c1-c1ccc(F)cc1 [CERIVASTATIN]	> 30	23.3	20.1	> 30									
C[N+](C)(C)CCO [CHOLINE]	> 30	> 30	> 30	> 30									
CCC(=O)NCC[C@@H]1CCc2ccc3c(c21)CCO3 [RAMELTEON]	> 30	> 30	> 30	> 30									
N[C@H](C(=O)O)[C@H](O)c1ccc(O)c(O)c1 [DROXIDOPA]	> 30	> 30	> 30	> 30									
CC[C@H]1OC(=O)[C@H](C)[C@@H](O[C@H]2C[C@@](C)(OC)[C@@H](O)[C@H](C)O2)[C@H](C)[C@@H](O[C@@H]2O[C@H](C)C[C@H](N(C)C)[C@H]2O)[C@](C)(O)C[C@@H](C)CN(C)[C@H](C)[C@@H](O)[C@]1(C)O [AZITHROMYCIN]	> 30	> 30	> 30	> 30		> 30	> 30	> 10				> 10	> 10
C=C[C@H]1C[N@@]2CC[C@H]1C[C@H]2[C@H](O)c1ccnc2ccc(OC)cc12 [QUININE]	> 10	> 30	> 30	> 30									
CC(C)Nc1ncccn1 [ISAXONINE]	> 30	> 30	> 30	> 30									
OCCN1C[C@H](O)[C@@H](O)[C@H](O)[C@H]1CO [MIGLITOL]	> 30	> 30	> 30	> 30									
Oc1c(Cl)cc(Cl)c2cccnc12 [CHLOROXINE]	> 0.3	> 30	> 30	5.19									
Cc1cc(C#N)cc(C)c1Oc1nc(Nc2ccc(C#N)cc2)nc(N)c1Br [ETRAVIRINE]	20.4	6.28	> 3	5.88									
CN(C)[C@@H](c1cccc(O)c1)[C@H]1CCCC[C@H]1O [CIRAMADOL]	> 30	> 30	> 30	> 30									
CN(C)CCN1C(=O)c2ccccc2N(C)c2ccccc21 [DIBENZEPIN]	> 30	> 30	> 30	0.212									
CCC1=C(C)CN(C(=O)NCCc2ccc(S(=O)(=O)NC(=O)N[C@H]3CC[C@H](C)CC3)cc2)C1=O [GLIMEPIRIDE]	> 30	> 30	18.5	> 30									
N[C@@H](C(=O)N[C@@H]1C(=O)N2C(C(=O)O)=C(Cl)CC[C@H]12)c1ccccc1 [LORACARBEF ANHYDROUS]	> 30	> 30	> 30	> 30									
CC(C)(C)NC[C@H](O)COc1ccccc1C1CCCC1 [PENBUTOLOL]	21.1	> 30	16.1	13.4									
CC[N+]1(C)[C@@H]2CC(OC(=O)[C@H](CO)c3ccccc3)C[C@H]1[C@@H]1O[C@@H]12 (stereo not given in full) [OXITROPIUM]	> 30	> 30	> 30	> 30									
O=C(O)c1cc(O)ccc1O [GENTISIC ACID]	> 30	> 30	> 30	> 30									
